Laboratory results published in ChEMBL document CHEMBL1201862, “PubChem BioAssay data set” (2004).
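Results reflect a 48-hour exposure of cells in 96-well plates to compound at five concentrations. Here, GI50 denotes the concentration required for 50% inhibition of growth.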 Calls of active or inactive are those of the source. Rule as the data show it: active = GI50 up to about 1.1 µM and inactive = higher.

Tests used:
Experiment in all cases: DTP human tumour cell line panel, 48 h
UACC-62 = system: UACC-62
SNB-75 = system: SNB-75
CCRF-CEM = system: CCRF-CEM
SK-MEL-28 = system: SK-MEL-28
HT-29 = system: HT-29
PC-3 = system: PC-3
T47D = system: T47D
HOP-92 = system: HOP-92
OVCAR-8 = system: OVCAR-8
OVCAR-3 = system: OVCAR-3
SF-539 = system: SF-539
OVCAR-4 = system: OVCAR-4
MDA-MB-231 = system: MDA-MB-231
SN12C = system: SN12C
ACHN = system: ACHN
COLO 205 = system: COLO 205
NCI-H460 = system: NCI-H460
OVCAR-5 = system: OVCAR-5
RPMI-8226 = system: RPMI-8226
NCI-H23 = system: NCI-H23

SMILES | GI50 (UACC-62) | GI50 (SNB-75) | GI50 (CCRF-CEM) | GI50 (SK-MEL-28) | GI50 (HT-29) | GI50 (PC-3) | GI50 (T47D) | GI50 (HOP-92) | GI50 (OVCAR-8) | GI50 (OVCAR-3) | GI50 (SF-539) | GI50 (OVCAR-4) | GI50 (MDA-MB-231) | GI50 (SN12C) | GI50 (ACHN) | GI50 (COLO 205) | GI50 (NCI-H460) | GI50 (OVCAR-5) | GI50 (RPMI-8226) | GI50 (NCI-H23)
Cc1c(C(=O)OCc2ccccc2)[n+]([O-])c2cc(F)c(F)cc2[n+]1[O-] | 2.11 µM (inactive) | 2.7 µM (inactive) | 0.944 µM (active) | 2.06 µM (inactive) | 2.01 µM (inactive) | 2.52 µM (inactive) | 1.51 µM (inactive) | 2.21 µM (inactive) | 2.07 µM (inactive) | 1.01 µM (active) | 2.52 µM (inactive) | 1.77 µM (inactive) | 1.8 µM (inactive) | 1.94 µM (inactive) | 1.94 µM (inactive) | 3.61 µM (inactive) | 2.46 µM (inactive) | 3.72 µM (inactive) | 4.41 µM (inactive) | 2.37 µM (inactive)
CCCCNCC(=O)O[C@]1(CC)C(=O)OCc2c1cc1n(c2=O)Cc2cc3ccccc3nc2-1 | 0.0578 µM (active) | 0.098 µM (active) | 0.0127 µM (active) | 2.17 µM (inactive) | 0.838 µM (active) | 1.85 µM (inactive) | 0.219 µM (active) | 1.52 µM (inactive) | 0.217 µM (active) | 2.16 µM (inactive) | 0.0832 µM (active) | 7.19 µM (inactive) | 29.9 µM (inactive) | 0.0622 µM (active) | 0.037 µM (active) | 1.7 µM (inactive) | 0.0261 µM (active) | 0.535 µM (active) | 0.385 µM (active) | 0.0769 µM (active)
CC(=O)OC1CC2(C)C(OC(C)=O)CC1C2(C)C (stereo not given) | > 100 µM (inactive) | > 100 µM (inactive) | > 100 µM (inactive) | > 100 µM (inactive) | > 100 µM (inactive) | > 100 µM (inactive) | > 100 µM (inactive) | > 100 µM (inactive) | > 100 µM (inactive) | > 100 µM (inactive) | > 100 µM (inactive) | > 100 µM (inactive) | > 100 µM (inactive) | > 100 µM (inactive) | > 100 µM (inactive) | > 100 µM (inactive) | > 100 µM (inactive) | > 100 µM (inactive) | > 100 µM (inactive) | > 100 µM (inactive)
O=C(O)CNC(=O)c1ccccc1O [SALICYLURIC ACID] | > 100 µM (inactive) | > 100 µM (inactive) | > 100 µM (inactive) | > 100 µM (inactive) | > 100 µM (inactive) | > 100 µM (inactive) | > 100 µM (inactive) | > 100 µM (inactive) | > 100 µM (inactive) | > 100 µM (inactive) | > 100 µM (inactive) | > 100 µM (inactive) | > 100 µM (inactive) | > 100 µM (inactive) | > 100 µM (inactive) | > 100 µM (inactive) | > 100 µM (inactive) | > 100 µM (inactive) | > 100 µM (inactive) | > 100 µM (inactive)
